Measurements published in ChEMBL document CHEMBL1212763, “Pharmacokinetics and safety of S/GSK1349572, a next-generation HIV integrase inhibitor, in healthy volunteers” (Antimicrob Agents Chemother, 2010).

Columns and labels:
[1] = Cmax in healthy human at 25 mg administered as single dose suspension; type: ADME, organism-based; design: dose 25 mg; conditions: in vivo
[2] = Half life in healthy human at 5 mg administered as single dose suspension; type: ADME, organism-based; conditions: in vivo
[3] = Drug level at 24 hrs in healthy human at 25 mg administered as single dose suspension; type: ADME, organism-based; conditions: in vivo, read-out: Drug uptake
[4] = AUC (0-infinity) in healthy human at 2 mg administered as single dose suspension; type: ADME, organism-based; design: dose 2 mg, time infinity; conditions: plasma
[5] = Apparent oral clearance in healthy human at 25 mg administered as single dose suspension; type: ADME, organism-based; conditions: in vivo
Homo sapiens [6] = assay: Toxicity in healthy human assessed as incidence of drug related incidence of headache at 10 mg, qd for 10 days administered as suspension measured after last dose; type: organism-based; conditions: in vivo, 240 h
[7] = Tmax in healthy human at 2 mg administered as single dose suspension; type: ADME, organism-based; conditions: in vivo
[8] = AUC (0-t) in healthy human at 50 mg administered as single dose suspension; type: ADME, organism-based; conditions: plasma
Homo sapiens [9] = assay: Toxicity in healthy human assessed as incidence of drug related incidence of somnolence at 10 mg administered as single dose suspension; type: organism-based; conditions: in vivo
[10] = Half life in healthy human at 100 mg administered as single dose suspension; type: ADME, organism-based; conditions: in vivo
[11] = Apparent oral clearance in healthy human at 50 mg administered as single dose suspension; type: ADME, organism-based; conditions: in vivo
[12] = Cmax in healthy human at 50 mg, qd for 10 days administered as suspension measured after last dose; type: ADME, organism-based; design: dose 50 mg; conditions: in vivo
[13] = Cmax in healthy human at 2 mg administered as single dose suspension; type: ADME, organism-based; design: dose 2 mg; conditions: in vivo
[14] = Tmax in healthy human at 25 mg, qd for 10 days administered as suspension measured after last dose; type: ADME, organism-based; conditions: in vivo
[15] = AUC (0-tau) in healthy human at 50 mg, qd for 10 days administered as suspension measured after last dose; type: ADME, organism-based; conditions: plasma
Homo sapiens [16] = assay: Toxicity in healthy human assessed as incidence of drug related incidence of pharyngolaryngeal pain at 25 mg, qd for 10 days administered as suspension measured after last dose; type: organism-based; conditions: in vivo, 240 h
[17] = AUC (0-t) in healthy human at 5 mg administered as single dose suspension; type: ADME, organism-based; conditions: plasma
Homo sapiens [18] = assay: Toxicity in healthy human assessed as incidence of drug related incidence of somnolence at 100 mg administered as single dose suspension; type: organism-based; conditions: in vivo
[19] = Half life in healthy human at 50 mg administered as single dose suspension; type: ADME, organism-based; conditions: in vivo
[20] = Apparent oral clearance in healthy human at 100 mg administered as single dose suspension; type: ADME, organism-based; conditions: in vivo
[21] = Half life in healthy human at 25 mg administered as single dose suspension; type: ADME, organism-based; conditions: in vivo
Homo sapiens [22] = assay: Toxicity in healthy human assessed as incidence of drug related incidence of pruritis at 25 mg, qd for 10 days administered as suspension measured after last dose coadministered with 3 mg CYP3A4 probe midazolam; type: organism-based; conditions: in vivo, 240 h
[23] = AUC (0-t) in healthy human at 10 mg administered as single dose suspension; type: ADME, organism-based; conditions: plasma
[24] = AUC (0-tau) in healthy human at 25 mg, qd for 10 days administered as suspension measured after last dose; type: ADME, organism-based; conditions: plasma
[25] = AUC (0-infinity) in healthy human at 100 mg administered as single dose suspension; type: ADME, organism-based; design: dose 100 mg, time infinity; conditions: plasma
Homo sapiens [26] = assay: Toxicity in healthy human assessed as incidence of drug related incidence of headache at 25 mg, qd for 10 days administered as suspension measured after last dose; type: organism-based; conditions: in vivo, 240 h
[27] = Tmax in healthy human at 5 mg administered as single dose suspension; type: ADME, organism-based; conditions: in vivo
Homo sapiens [28] = assay: Toxicity in healthy human assessed as incidence of drug related incidence of head ache at 10 mg administered as single dose suspension; type: organism-based; conditions: in vivo
Homo sapiens [29] = assay: Toxicity in healthy human assessed as incidence of drug related incidence of pharyngolaryngeal pain at 50 mg, qd for 10 days administered as suspension measured after last dose; type: organism-based; conditions: in vivo, 240 h
[30] = Drug level at 24 hrs in healthy human at 5 mg administered as single dose suspension; type: ADME, organism-based; conditions: in vivo, read-out: Drug uptake
[31] = AUC (0-t) in healthy human at 100 mg administered as single dose suspension; type: ADME, organism-based; conditions: plasma
Homo sapiens [32] = assay: Toxicity in healthy human assessed as incidence of drug related incidence of pharyngolaryngeal pain at 10 mg, qd for 10 days administered as suspension measured after last dose; type: organism-based; conditions: in vivo, 240 h
[33] = Tmax in healthy human at 100 mg administered as single dose suspension; type: ADME, organism-based; conditions: in vivo
Homo sapiens [34] = assay: Toxicity in healthy human assessed as incidence of drug related incidence of pruritis at 50 mg, qd for 10 days administered as suspension measured after last dose; type: organism-based; conditions: in vivo, 240 h
[35] = AUC (0-t) in healthy human at 25 mg administered as single dose suspension; type: ADME, organism-based; conditions: plasma
[36] = AUC (0-t) in healthy human at 2 mg administered as single dose suspension; type: ADME, organism-based; conditions: plasma
[37] = AUC (0-infinity) in healthy human at 25 mg administered as single dose suspension; type: ADME, organism-based; design: dose 25 mg, time infinity; conditions: plasma

C[C@@H]1CCO[C@H]2Cn3cc(C(=O)NCc4ccc(F)cc4F)c(=O)c([O-])c3C(=O)N12.[Na+] [DOLUTEGRAVIR SODIUM]
Cmax [1]: 2760 ng/mL | half-life [2]: 14.3 h | concentration at 24 h [3]: 469 ng/mL | AUC(0-inf) [4]: 2780 ng·h/mL | CL/F [5]: 11.8 mL/min | Activity (Homo sapiens [6]): 0% | Tmax [7]: 0.63 h | AUC(0-t) [8]: 70800 ng·h/mL | Activity (Homo sapiens [9]): 0% | half-life [10]: 14.7 h | CL/F [11]: 11.3 mL/min | Cmax [12]: 6160 ng/mL | Cmax [13]: 231 ng/mL | Tmax [14]: 1 h | AUC tau at 240 h [15]: 76800 ng·h/mL | Activity (Homo sapiens [16]): 0% | AUC(0-t) [17]: 8540 ng·h/mL | Activity (Homo sapiens [18]): 0% | half-life [19]: 14.2 h | CL/F [20]: 12.3 mL/min | half-life [21]: 12.7 h | Activity (Homo sapiens [22]): 0% | AUC(0-t) [23]: 14300 ng·h/mL | AUC tau at 240 h [24]: 38400 ng·h/mL | AUC(0-inf) [25]: 136000 ng·h/mL | Activity (Homo sapiens [26]): 0% | Tmax [27]: 0.5 h | Activity (Homo sapiens [28]): 13% | Activity (Homo sapiens [29]): 11% | concentration at 24 h [30]: 126 ng/mL | AUC(0-t) [31]: 131000 ng·h/mL | Activity (Homo sapiens [32]): 0% | Tmax [33]: 1 h | Activity (Homo sapiens [34]): 22% | AUC(0-t) [35]: 34300 ng·h/mL | AUC(0-t) [36]: 2630 ng·h/mL | AUC(0-inf) [37]: 35100 ng·h/mL
